Like-named read-outs stand apart in the source and are kept apart here.
Assays:
[1] = Potentiometric titrations: stability constants and pM of Cu^2+ complexes; type: physicochemical; settings: for b) thermodynamic stability: pCu: overview table, calculated pM
Description: Equipment and work conditions. The potentiometric setup has been described in Roger, M. et al. Inorg. […] Ligand solutions were prepared at about 2.0×10^−3 M, and the Cu^2+ and Zn^2+ solutions at ca. 0.05 M from analytical grade nitrate salts and standardized by complexometric titrations with H4edta (ethylenediaminetetraacetic acid). Sample solutions for titration contained approximately 0.04 mmol of ligand in a volume of 30 mL where the ionic strength was kept at 0.10 M using KNO3 as background electrolyte. Metal cations were added at 0.9 equiv. of the ligand amount in complexation titrations. Batch titrations were prepared in a similar way but with each titration point corresponding to 1/10 of the amount of a conventional titration sample.
(§1) Measurements. All measurements were carried out at 25.0±0.1° C. under inert atmosphere. The electromotive force of the sample solutions was measured after calibration of the electrodes by titration of a standard HNO3 solution at 2.0×10^−3 M in the work conditions. The [H^+] of the solutions was determined by measurement of the electromotive force of the cell, E=E^o′+Q log [H^+]+Ej. The term pH is defined as −log [H^+]. E^o′ and Q were determined from the acid region of the calibration curves. Deviations from the Nernst law at very low pH (pH<2.5) were corrected with the VLpH software (Calibration software from the maker of Hyperquad available for free at http://www.hyperquad.co.uk/), which performs a [H^+] correction based on a very low pH calibration procedure.
(§2) Calculations. The potentiometric data were refined with the Hyperquad software, and speciation diagrams were plotted using the HySS software. The overall equilibrium constants βi^H and βMmHhL1 are defined by βMmHhL1=[MmHhLl]/[M]^m[H]^h[L]^l (βi^H=[HhLl]/[H]^h[L]^l and βML-1L=βML(OH)×Kw). Differences in log units between the values of protonated (or hydrolysed) and non-protonated constants provide the stepwise (log K) reaction constants (being KMmHhL1=[MmHhLl]/[MmHh-1Ll][H]). The errors quoted are the standard deviations calculated by the fitting program from all the experimental data for each system.
(§3) The stability constants of the complexes formed by Hcb-te1pa with Cu^2+ and Zn^2+ were determined by potentiometric titrations in aqueous solution at 25.0° C. in 0.10 M KNO3 ionic strength (Table 2).
During titrations, each experimental point included a supplementary equilibration time in order to yield fully stabilized measurements. […] For this reason, batch titrations were prepared in the range of pH=4-6 and were left to equilibrate until full stabilization, while conventional titrations were used for the remaining pH regions.
For a correct comparison of the thermodynamic stability of the complexes of Hcb-te1pa with the corresponding values of other ligands from the literature, the pM values that take into account the variable basicity properties of different ligands were also calculated (Table 3). […] The thermodynamic stability is not the only important criterion to determine the efficiency of metal complexation because, depending on the application, other factors such as kinetic inertness or in vivo stability can be more important.

[2] = Potentiometric titrations: stability constants and pM of Zn^2+ complexes; type: physicochemical; settings: for c) inertness vs Zn: pZn: overview table, calculated pM
Description: Equipment and work conditions. The potentiometric setup has been described in Roger, M. et al. Inorg. Chem. 2013, 52, 5246-5259. The titrant was a KOH solution prepared at ca. 0.1 M from a commercial ampoule of analytical grade, and its accurate concentration was obtained by application of the Gran's method upon titration of a standard HNO3 solution (Rossotti, F. J. and Rossotti, H. J. J. Chem. Educ. 1965, 42, 375-378). Ligand solutions were prepared at about 2.0×10^−3 M, and the Cu^2+ and Zn^2+ solutions at ca. 0.05 M from analytical grade nitrate salts and standardized by complexometric titrations with H4edta (ethylenediaminetetraacetic acid). Sample solutions for titration contained approximately 0.04 mmol of ligand in a volume of 30 mL where the ionic strength was kept at 0.10 M using KNO3 as background electrolyte. Metal cations were added at 0.9 equiv. of the ligand amount in complexation titrations. Batch titrations were prepared in a similar way but with each titration point corresponding to 1/10 of the amount of a conventional titration sample. Batch titration points were incubated in tightly closed vials at 25° C. until potential measurements attained complete stability, which happened within a week.
as §1, with “procedure. The liquid-junction potential, Ej, was otherwise found to be negligible for pH >2.5 under the experimental conditions used. […] Each titration consisted of 80-100 equilibrium points in the range of pH 2.5-11.5 (or 1.5-11.5 for Cu^2+ complexations), and at least two replicate titrations were performed for each particular system.” for “procedure.”
as §2, §3
The equilibrium of formation of the copper(II) and especially the zinc(II) complexes is slow in the acidic pH range. In the case of Cu^2+, the complexation is almost complete from low pH but relatively slow up to pH=4. To overcome this double problem, conventional titrations were performed at pH values below 2 in order to observe a significant percentage of free metal ion (at least 18%) and thus allow for determination of the corresponding stability constant, while giving the solution enough time to reach equilibrium prior to the start of the titration. During titrations, each experimental point included a supplementary equilibration time in order to yield fully stabilized measurements. […]

[3] = 25.0° C., 0.10M KNO3; from Lima et al. 2012; cited from earlier work
[4] = cited from earlier work; for b) thermodynamic stability: log K[CuL]: overview table, ligands of the prior art (* estimation by Anderson and Ferdani 2009)
[5] = cited from earlier work; for c) inertness vs Zn: log K[ZnL]: overview table, ligands of the prior art (** Delgado 1982, *** Chaves 1992)
[6] = overview table, cited from earlier work; for a) metallation kinetics: time required for complete (>99%) Cu complexation (in words): ligands of the prior art
[7] = cited from earlier work; for half-life (t1/2), acid-assisted dissociation of copper(II) complex: literature value; for d) kinetic inertness: half-life (t1/2): copper chelates of prior-art ligands
[8] = overview table; copper chelates of prior-art ligands; cited from earlier work
[9] = pH = 7.4, 100% excess of ligand, [M^2+]tot = 1 × 10^−5 M
[10] = 25.0° C., I = 0.10M KNO3, from Lima et al. 2012

In the case of `O=C(O)c1cccc(CN2CCCNCCNCCCNCC2)n1` [Hte1pa], the “b) thermodynamic stability: pCu” value [1] is reported as 18.64, the “Calculated pM, Cu^2+” value [1, 9] is reported as 18.64 and the “c) inertness vs Zn: pZn” value [2] is reported as 12.00. For the same molecule, the “Calculated pM, Zn^2+” value [2, 9] was 12.00, the “log βi^H, L + 2 H^+ ⇌ H2L” value [3] was 21.66 log units and the “log βi^H, L + 3 H^+ ⇌ H3L” value [3] was 24.37 log units. For the same molecule, the “log βi^H, L + 4 H^+ ⇌ H4L” value [3] was 26.07 log units, the “log βi^H, L + H^+ ⇌ HL” value [3] was 11.55 log units and the “log KMLHh, CuL + H^+ ⇌ CuHL” value [4, 10] was 2.17 log units. For the same molecule, the “log KMLHh, CuLOH + H^+ ⇌ CuL” value [4, 10] was 11.15 log units, the “log KMLHh, Cu^2+ + L ⇌ CuL” value [4, 10] was 25.5 log units and the “log βMLHh, Cu^2+ + H^+ + L ⇌ CuHL” value [4, 10] was 27.67 log units. For the same molecule, the “log βMLHh, Cu^2+ + L ⇌ CuL” value [4, 10] was 25.5 log units, the “log βMLHh, Cu^2+ + L ⇌ CuLOH + H^+” value [4, 10] was 14.35 log units and the “b) thermodynamic stability: log K[CuL]” value [4] was 25.50. The “log KMLHh, ZnL + H^+ ⇌ ZnHL” value [5, 10] was 2.52 log units, the “log KMLHh, ZnLOH + H^+ ⇌ ZnL” value [5, 10] was 11.02 log units and the “log KMLHh, Zn^2+ + L ⇌ ZnL” value [5, 10] was 18.86 log units. For the same molecule, the “log βMLHh, Zn^2+ + H^+ + L ⇌ ZnHL” value [5, 10] was 21.38 log units, the “log βMLHh, Zn^2+ + L ⇌ ZnL” value [5, 10] was 18.86 log units and the “log βMLHh, Zn^2+ + L ⇌ ZnLOH + H^+” value [5, 10] was 7.84 log units. The “c) inertness vs Zn: log K[ZnL]” value [5] was 18.86, the “a) metallation kinetics: time required for complete (>99%) Cu complexation” value ([6]; ligand of the prior art) was 3 min and the “half-life (t1/2), acid-assisted dissociation of copper(II) complex” value (shortened to “half-life … of copper(II) complex”) ([7]; 1M HCl, 25° C.) was 0.533 h. For the same molecule, the “half-life … of copper(II) complex” value ([7]; 5M HClO4, 25° C.) was 2.4 h, the “d) kinetic inertness: half-life (t1/2)” value ([7]; HClO4, 5M, 25° C.) was 144 min and the “e) stability upon reduction, Cu(II) -> Cu (I): reduction potential” value [8] was −1.05 V. The “e) stability upon reduction, Cu(II) -> Cu (I): reversibility” value [8] was “quasi-reversible”.
For `O=C(O)CN1CCN2CCN(CC1)CCN(CC(=O)O)CC2` [cb-do2a], the “a) metallation kinetics: time required for complete (>99%) Cu complexation (in words)” value [6] is given as “too slow”, the “half-life … of copper(II) complex” value ([7]; 5M HCl, 30° C.) is given as under 0.033 h and the “d) kinetic inertness: half-life (t1/2)” value ([7]; HCl, 5M, 30° C.) is given as under 2 min. For the same molecule, the “d) kinetic inertness: half-life (t1/2)” value ([7]; HCl, 5M, 90° C.) was under 3 min, the “e) stability upon reduction, Cu(II) -> Cu (I): reduction potential” value [8] was −0.72 V and the “e) stability upon reduction, Cu(II) -> Cu (I): reversibility” value [8] was “irreversible”.
For `O=C(O)CN1CCCN2CCN(CCCN(CC(=O)O)CC2)CC1` [cb-te2a], the “b) thermodynamic stability: log K[CuL]” value [4] is given as 27.10*, the “a) metallation kinetics: time required for complete (>99%) Cu complexation (in words)” value [6] is given as “too slow” and the “half-life … of copper(II) complex” value ([7]; 5M HCl, 90° C.) is given as 154 h. For the same molecule, the “d) kinetic inertness: half-life (t1/2)” value ([7]; HCl, 5M, 90° C.) was 9240 min, the “e) stability upon reduction, Cu(II) -> Cu (I): reduction potential” value [8] was −0.88 V and the “e) stability upon reduction, Cu(II) -> Cu (I): reversibility” value [8] was “quasi-reversible”.
For `O=C(O)CN1CCN(CC(=O)O)CCN(CC(=O)O)CCN(CC(=O)O)CC1` [dota, 1,4,7,10-tetraazacyclododecane-1,4,7,10-tetraacetic acid], the “b) thermodynamic stability: pCu” value [1] is listed as 15.19, the “c) inertness vs Zn: pZn” value [2] is listed as 15.01 and the “b) thermodynamic stability: log K[CuL]” value [4] is listed as 22.21. For the same molecule, the “c) inertness vs Zn: log K[ZnL]” value [5] was 21.01***, the “a) metallation kinetics: time required for complete (>99%) Cu complexation (in words)” value [6] was “fast” and the “d) kinetic inertness: half-life (t1/2)” value ([7]; HCl, 5M, 90° C.) was under 1 min. The “d) kinetic inertness: half-life (t1/2)” value ([7]; HClO4, 5M, 25° C.) was “about 5 min”, the “e) stability upon reduction, Cu(II) -> Cu (I): reduction potential” value [8] was −0.74 V and the “e) stability upon reduction, Cu(II) -> Cu (I): reversibility” value [8] was “irreversible”.
In the case of `O=C(O)CN1CCCN(CC(=O)O)CCN(CC(=O)O)CCCN(CC(=O)O)CC1` [teta], the “b) thermodynamic stability: pCu” value [1] is listed as 15.19, the “c) inertness vs Zn: pZn” value [2] is listed as 10.08 and the “b) thermodynamic stability: log K[CuL]” value [4] is listed as 21.60. For the same molecule, the “c) inertness vs Zn: log K[ZnL]” value [5] was 15.81**, the “a) metallation kinetics: time required for complete (>99%) Cu complexation (in words)” value [6] was “fast” and the “d) kinetic inertness: half-life (t1/2)” value ([7]; HCl, 5M, 30° C.) was 5040 min. For the same molecule, the “d) kinetic inertness: half-life (t1/2)” value ([7]; HCl, 5M, 90° C.) was 4.5 min, the “d) kinetic inertness: half-life (t1/2)” value ([7]; HClO4, 5M, 25° C.) was “about 8 min” and the “e) stability upon reduction, Cu(II) -> Cu (I): reduction potential” value [8] was −0.98 V. For the same molecule, the “e) stability upon reduction, Cu(II) -> Cu (I): reversibility” value [8] was “irreversible”.

Source: patent US10434199B2, “Picolinate cross-bridged cyclams, chelates with metallic cations and use thereof” (UNIVERSITÉ DE BRETAGNE OCCIDENTALE, priority 2013, dated 2019)
